Like-named read-outs stand apart in the source and are kept apart here.
How the values were obtained:
[1] = Solubility of charge-protected oligonucleotide in salt solution; format: physicochemical

SEQ ID NO:23: RNAi against GFP comprising SEQ ID NO:23 having N1-U-SATE nucleotides; 21 mer charge-protected oligonucleotide (CCACUACCUGAGCACCCAGTTTUGGUGAUGGACUCGUGGGUC; contains N1-U-SATE charge-protected nucleotides, positions not given here)
solubility in salt solution [1]: soluble in salt solution
inhibition of expression of GFP (dose response curves) (GFP; at 24 hours): inhibition of expression of GFP
inhibition of expression of GFP (dose response curves) (GFP; at 48 hours): inhibition of expression of GFP
